Literature values as cited in patent US20150314047A1, “BORON COMPOSITE SURFACE COATINGS AND THEIR APPLICATION ON IMPLANTABLE DEVICES TO ACCELERATE OSSEOUS HEALING” (Rutgers, The State University of New Jersey, priority 2014, published 2015).
Like-named read-outs stand apart in the source and are kept apart here.

What was measured:
[1] = system: human origin cultured cells
axial skeleton = conditions: boron administered at several concentrations
pre-osteoblastic cells = conditions: 0.1, 1, 10, and 100 ng/mL boron concentrations

## [Co] [cobalt]
[1]; even at reasonably high concentrations
  Effect on cell survival: negatively affected cell survival

## cubic boron nitride
[1]
  Effect on cell survival: did not affect cell survival

## [B] [boron]
Axial skeleton
  Higher resistance to vertebral crushing force: 10%
pre-osteoblastic cells
  Bone Morphogenic Proteins (BMPs)-4, -6, and -7: increases
